Measured values reported in patent US20210255193A1, “LYSINE REACTIVE PROBES AND USES THEREOF” (The Scripps Research Institute, priority 2017, published 2021).

Columns and labels:
Test in all cases: competitive isoTOP-ABPP
[1] = target: T1, PFKP 6-phosphofructokinase type C (Homo sapiens, UniProt Q01813); format: binding; parameters: key to isoTOP-ABPP reactivity ratio at lysine Q01813_K688: R = MS1 peak area ratio, DMSO (heavy) / compound-treated (light); details: for R value (DMSO/fragment) for probe 1 labeling: Q01813_K688; for R value (DMSO/fragment) for probe 1 labeling / isoTOP-ABPP reactivity ratio at lysine Q01813_K688: 50 uM, 231 sol, in vitro
T1 construct: isoTOP-ABPP experiments performed in cell lysates (in vitro); endogenous in cells
T1 sequence (Q01813 1-784): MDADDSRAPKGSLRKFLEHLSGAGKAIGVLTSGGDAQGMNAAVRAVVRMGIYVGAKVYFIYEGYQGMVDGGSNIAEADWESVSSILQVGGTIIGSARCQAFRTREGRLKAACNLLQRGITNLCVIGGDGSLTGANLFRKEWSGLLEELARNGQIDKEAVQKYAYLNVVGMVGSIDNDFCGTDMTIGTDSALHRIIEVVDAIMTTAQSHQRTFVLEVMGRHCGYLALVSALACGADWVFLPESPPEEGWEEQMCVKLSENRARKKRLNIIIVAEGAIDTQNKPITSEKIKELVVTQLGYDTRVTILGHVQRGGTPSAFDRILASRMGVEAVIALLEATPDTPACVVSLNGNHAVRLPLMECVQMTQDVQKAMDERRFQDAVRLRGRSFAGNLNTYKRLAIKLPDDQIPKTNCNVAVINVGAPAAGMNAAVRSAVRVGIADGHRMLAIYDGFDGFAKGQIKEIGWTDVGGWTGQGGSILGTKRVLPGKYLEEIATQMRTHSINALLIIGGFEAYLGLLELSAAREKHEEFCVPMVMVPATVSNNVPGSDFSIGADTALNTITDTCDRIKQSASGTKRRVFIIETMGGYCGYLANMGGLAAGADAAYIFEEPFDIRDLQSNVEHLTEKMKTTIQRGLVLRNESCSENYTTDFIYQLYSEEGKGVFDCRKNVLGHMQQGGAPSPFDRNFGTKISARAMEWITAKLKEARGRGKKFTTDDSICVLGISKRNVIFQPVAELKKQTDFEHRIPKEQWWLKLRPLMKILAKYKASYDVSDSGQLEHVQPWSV
Procedure: (§1) In vitro covalent fragment treatment for isoTOP-ABPP. All compounds were made up as solutions in DMSO (100×) and were used at a final concentration of 50 μM for activated esters and 100 μM for guanidinylating agents. For each profiling sample, 0.5 ml of lysate was treated with 5 μl of the 100× compound stock solution or 5 μl of DMSO. Samples were treated with activated esters for
(§2) STP-alkyne labeling and click chemistry. For concentration-dependent reactivity measurements by isoTOP-ABPP, 0.5 ml proteome aliquots were treated at ambient temperature with 1 mM STP-alkyne 1 (5 μl of 100 mM stock in DMSO) and 0.1 mM STP alkyne 1 (5 μl of 10 mM stock in DMSO), respectively. For competitive isoTOP-ABPP, after in vitro fragment treatment (detailed above), the samples were labeled for 1 h at ambient temperature with 0.1 mM STP-alkyne 1 (5 μl of 10 mM stock in DMSO). Samples were conjugated by copper-mediated azide-alkyne cycloaddition (CuAAC) to either the light (1 mM STP-alkyne or fragment treated) or heavy (0.1 mM STP-alkyne or DMSO treated) TEV tags (10 μl of 5 mM stocks in DMSO, final concentration=100 μM) using tris(2-carboxyethyl)phosphine hydrochloride
(§3) R value calculation and processing. The ratios of light and heavy MS1 peaks for each unique peptide were quantified with a CIMAGE software using default parameters (3 MS1 acquisitions per peak and signal to noise threshold set to 2.5). For reactivity measurements by isoTOP-ABPP, the R value was calculated from the ratio of MS1 peak areas, comparing the 1 mM STP alkyne sample (light TEV tag) with the 0.1 mM STP alkyne sample (heavy TEV tag). For competitive isoTOP-ABPP, the R value was calculated from the ratio of MS1 peak areas, comparing the DMSO treated sample (heavy TEV tag) with the compound treated sample (light TEV tag). […] Ratios for unique peptide entries are calculated for each experiment; overlapping peptides with the same modified lysine (for example, different charge states, MudPIT chromatographic steps or tryptic termini) are grouped together and the median ratio is reported as the final ratio (R). The peptide ratios reported by CIMAGE were further filtered to ensure the removal or correction of low-quality ratios in each individual data set. The quality filters applied were the following: removal of half tryptic peptides; for ratios with high standard deviations from the median (90% of the median or above) the lowest ratio was taken instead of the median; removal of peptides with R=20 and only a single MS2 event triggered during the elution of the parent ion; manual annotation of all the peptides with ratios of 20, removing any peptides with low quality elution profiles that remained after the previous curation steps (only done for competitive isoTOP-ABPP).
(§4) Cross-data processing for fragment screening. For compound treated samples, biological replicates of the same condition were averaged, if the standard deviation was below 60% of the mean; otherwise, for lysines with at least one R value <4 for a particular compound, the lowest value of the ratio set was taken. For lysines, where all R values for a particular compound were ≥4, the average was reported. For peptides containing several possible modified lysines, the lysine with the highest number of quantification events was used for analysis and the remaining, redundant peptides were reported as alternative modification sites. Peptides included in the aggregate dataset (those used for further bioinformatics and statistical analyses) were required to have been quantified in 2 experiments for competitive isoTOP-ABPP. Lysines were categorized as liganded, if they had at least one ratio R≥4 (hit fragments). For liganded lysines with R=20 for all liganding events, lysines were required to have been quantified with R=20 in two separate experiments and were further required to have been quantified with R<20 in one additional experiment.

[2] = target: T2, TPD52L2 Tumor protein D54 (Homo sapiens, UniProt O43399); format: binding; parameters: key to isoTOP-ABPP reactivity ratio at lysine O43399_K90: R = MS1 peak area ratio, DMSO (heavy) / compound-treated (light); details: 50 uM, 231 sol, in vitro; for R value (DMSO/fragment) for probe 1 labeling: O43399_K90
T2 construct: isoTOP-ABPP experiments performed in cell lysates (in vitro); endogenous in cells; host or cells: MDA-MB-231 soluble lysate
T2 sequence (O43399 whole entry, the tested form may be a part): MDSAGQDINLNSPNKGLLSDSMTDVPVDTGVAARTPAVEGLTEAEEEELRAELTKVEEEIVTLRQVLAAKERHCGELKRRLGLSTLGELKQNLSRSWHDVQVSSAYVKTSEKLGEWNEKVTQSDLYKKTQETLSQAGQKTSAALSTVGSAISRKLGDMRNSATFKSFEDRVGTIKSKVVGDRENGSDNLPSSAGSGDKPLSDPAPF
Procedure: as §1, §2, §3, §4

[3] = target: T3, ABCE1 ATP-binding cassette sub-family E member 1 (Homo sapiens, UniProt P61221); details: 50 uM, 231 sol, in vitro
T3 construct: isoTOP-ABPP experiments performed in cell lysates (in vitro); endogenous in cells; host or cells: soluble proteome of human cancer cell lines (MDA-MB-231, Ramos, Jurkat)
Procedure: as §1, §2, §3, §4

[4] = target: T4, NUDT2 Bis(5-nucleosyl)-tetraphosphatase (Homo sapiens, UniProt P50583); format: binding; parameters: key to isoTOP-ABPP reactivity ratio at lysine P50583_K89: R = MS1 peak area ratio, DMSO (heavy) / compound-treated (light); details: 50 uM, 231 sol, in vitro; for R value (DMSO/fragment) for probe 1 labeling: P50583_K89
T4 construct: isoTOP-ABPP experiments performed in cell lysates (in vitro); endogenous in cells
T4 sequence (P50583 whole entry, the tested form may be a part): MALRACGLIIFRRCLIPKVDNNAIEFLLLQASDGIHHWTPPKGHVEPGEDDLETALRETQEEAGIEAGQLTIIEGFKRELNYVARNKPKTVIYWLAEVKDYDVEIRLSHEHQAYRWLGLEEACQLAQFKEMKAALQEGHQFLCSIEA
Procedure: as §1, §2, §3, §4

SMILES	R value (DMSO/fragment) for probe 1 labeling [1]	R value (DMSO/fragment) for probe 1 labeling [2]	R value (DMSO/fragment) for probe 1 labeling ([3]; P61221_K191)	R value (DMSO/fragment) for probe 1 labeling ([3]; P61221_K478)	R value (DMSO/fragment) for probe 1 labeling [4]	blockade of probe 1 labeling of K688 ([1]; PFKP K688)	isoTOP-ABPP reactivity ratio at lysine Q01813_K688 [1]	isoTOP-ABPP reactivity ratio at lysine O43399_K90 [2]	isoTOP-ABPP reactivity ratio at lysine P61221_K478 [3]	isoTOP-ABPP reactivity ratio at lysine P50583_K89 [4]	isoTOP-ABPP reactivity ratio at lysine P61221_K191 [3]
O=C(Oc1c(F)c(F)c(F)c(F)c1F)C(c1ccccc1)c1ccccc1 [fragment 20, Pentafluorophenyl 2,2-diphenylacetate]	20.0	1.5	0.9	1.2	0.9	completely blocked	–	–	–	–	–
O=C(Oc1c(F)c(F)c(F)c(F)c1F)c1cc(C(F)(F)F)cc(C(F)(F)F)c1 [fragment 21, Pentafluorophenyl 3,5-bis(trifluoromethyl)benzoate]	1.1	2.0	1.0	–	0.9	–	–	–	–	–	–
Cn1cc(CC(=O)Oc2c(F)c(F)c(F)c(F)c2F)c2ccccc21 [fragment 22, Pentafluorophenyl 2-(1-methyl-1H-indol-3-yl)acetate]	2.0	3.6	1.5	1.6	0.9	–	–	–	–	–	–
O=C(Oc1c(F)c(F)c(F)c(F)c1F)c1ccc2ccccc2n1 [fragment 25, Pentafluorophenyl quinoline-2-carboxylate]	–	–	–	–	–	–	15.6	1.5	1.5	1.0	1.7
O=C(CN1C(=O)c2ccccc2C1=O)Oc1c(F)c(F)c(F)c(F)c1F [fragment 27, Pentafluorophenyl 2-(1,3-dioxoisoindolin-2-yl)acetate]	–	–	–	–	–	–	20.0	1.4	2.1	0.7	–
CCn1cc(C(=O)Oc2c(F)c(F)c(F)c(F)c2F)c(=O)c2ccc(C)nc21 [fragment 28, Pentafluorophenyl 1-ethyl-7-methyl-4-oxo-1,4-dihydro-1,8-naphthyridine-3-carboxylate]	–	–	–	–	–	–	1.3	1.1	1.0	1.0	–

Second part, the molecule after the results:

R value (DMSO/fragment) for probe 1 labeling [1]	R value (DMSO/fragment) for probe 1 labeling [2]	R value (DMSO/fragment) for probe 1 labeling ([3]; P61221_K191)	R value (DMSO/fragment) for probe 1 labeling ([3]; P61221_K478)	R value (DMSO/fragment) for probe 1 labeling [4]	blockade of probe 1 labeling of K688 ([1]; PFKP K688)	isoTOP-ABPP reactivity ratio at lysine Q01813_K688 [1]	isoTOP-ABPP reactivity ratio at lysine O43399_K90 [2]	isoTOP-ABPP reactivity ratio at lysine P61221_K478 [3]	isoTOP-ABPP reactivity ratio at lysine P50583_K89 [4]	isoTOP-ABPP reactivity ratio at lysine P61221_K191 [3]	SMILES
1.5	2.6	0.9	1.1	1.0	–	–	–	–	–	–	O=C(CCc1cn(-c2ccccc2)nc1-c1ccccc1)Oc1c(F)c(F)c(F)c(F)c1F [fragment 19, Pentafluorophenyl 3-(1,3-diphenyl-1H-pyrazol-4-yl)propanoate]
2.1	1.5	1.3	1.5	1.0	–	–	–	–	–	–	COc1cc(CCC(=O)Oc2c(F)c(F)c(F)c(F)c2F)cc(OC)c1OC [fragment 23, Pentafluorophenyl 3-(3,4,5-trimethoxyphenyl)propanoate]
–	–	–	–	–	–	2.5	1.9	1.4	0.9	–	O=C(Oc1c(F)c(F)c(F)c(F)c1F)C1CCN(C(=O)OCc2ccccc2)CC1 [fragment 24, 1-Benzyl 4-(pentafluorophenyl) piperidine-1,4-dicarboxylate]
–	–	–	–	–	–	6.4	1.3	1.3	0.9	1.4	O=C(CCc1coc2cc(F)ccc2c1=O)Oc1c(F)c(F)c(F)c(F)c1F [fragment 26, Pentafluorophenyl 3-(7-fluoro-4-oxo-4H-chromen-3-yl)propanoate]
